Active and inactive are the calls of the source.
Legend:
[1] = biological target: Dual specificity tyrosine-phosphorylation-regulated kinase 1A (Rattus norvegicus, UniProt Q63470); assay type: biochemical, Homo sapiens
[2] = biological target: T1, Type-1 angiotensin II receptor (Homo sapiens, UniProt P30556); assay: AT1 receptor antagonists, dose response, selectivity assay for APJ receptor antagonist project, cell-based, uHTS hits (AID 463214); assay type: functional;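 also: antagonist potency against angiotensin II stimulated AT1 response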
T1 sequence (P30556 whole entry): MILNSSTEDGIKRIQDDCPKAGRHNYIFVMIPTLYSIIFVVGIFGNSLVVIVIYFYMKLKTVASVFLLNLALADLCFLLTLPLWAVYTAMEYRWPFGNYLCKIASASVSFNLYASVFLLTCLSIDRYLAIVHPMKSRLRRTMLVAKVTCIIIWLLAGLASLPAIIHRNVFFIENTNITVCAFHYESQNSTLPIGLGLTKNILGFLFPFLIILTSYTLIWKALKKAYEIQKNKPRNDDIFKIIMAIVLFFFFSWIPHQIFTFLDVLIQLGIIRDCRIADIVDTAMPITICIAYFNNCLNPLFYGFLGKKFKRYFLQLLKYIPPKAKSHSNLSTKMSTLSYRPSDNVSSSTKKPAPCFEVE

[3] = biological target: T2, RNA-binding protein pos-1 (Caenorhabditis elegans, UniProt G5EF15); assay: inhibitors of POS-1/mex-3 RNA binding, dose response, biochemical, fluorescence polarization (AID 1964);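 also: purified POS-1 fused to maltose binding protein made in E. coli; potency of compounds blocking POS-1 binding to fluorescent RNA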
T2 sequence (G5EF15 whole entry): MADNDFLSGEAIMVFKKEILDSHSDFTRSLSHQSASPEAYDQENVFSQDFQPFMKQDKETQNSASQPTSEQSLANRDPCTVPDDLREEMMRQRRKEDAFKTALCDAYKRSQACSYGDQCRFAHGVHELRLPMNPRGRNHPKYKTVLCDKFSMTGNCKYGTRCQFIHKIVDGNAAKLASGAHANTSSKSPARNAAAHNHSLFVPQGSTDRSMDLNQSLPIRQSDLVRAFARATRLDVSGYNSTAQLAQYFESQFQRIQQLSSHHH

Beta-galactosidase = Beta-galactosidase (Escherichia coli, UniProt Q8VNN2); assay: PubChem AID 485352; assay type: functional
[4] = biological target: T3, Zinc finger protein mex-5 (Caenorhabditis elegans, UniProt Q9XUB2); assay: MEX-5/TCR-2 RNA interaction inhibitors, dose response, biochemical, C. elegans, fluorescence polarization (AID 1960)
T3 sequence (Q9XUB2 whole entry): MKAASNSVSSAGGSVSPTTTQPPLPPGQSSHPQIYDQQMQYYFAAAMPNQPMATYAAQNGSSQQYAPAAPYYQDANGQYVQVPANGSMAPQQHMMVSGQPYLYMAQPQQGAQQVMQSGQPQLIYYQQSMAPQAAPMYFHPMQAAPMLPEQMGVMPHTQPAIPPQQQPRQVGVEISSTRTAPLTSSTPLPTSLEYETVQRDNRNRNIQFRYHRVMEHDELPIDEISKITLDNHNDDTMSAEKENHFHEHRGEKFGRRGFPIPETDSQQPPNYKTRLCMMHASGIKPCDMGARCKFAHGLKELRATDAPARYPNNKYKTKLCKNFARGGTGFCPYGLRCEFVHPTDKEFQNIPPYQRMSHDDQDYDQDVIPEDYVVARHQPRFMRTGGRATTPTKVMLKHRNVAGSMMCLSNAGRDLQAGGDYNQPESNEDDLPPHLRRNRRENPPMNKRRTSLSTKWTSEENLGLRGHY

[5] = cytotoxicity toward NIH3T3 fibroblasts, dose response, counter-screen, cell-based, ATP luminescence, mouse fibroblasts (AID 2010); assay type: functional;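 also: cells exposed to compound for about 90 hours before reading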
[6] = inhibitors of intracellular T. cruzi replication, confirmation, NIH3T3 host cells, beta-gal luminescence (AID 2044); assay type: functional, cell-based;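 also: intracellular parasites grown in NIH/3T3 mouse fibroblasts as host cells; luminescent beta-galactosidase reporter signal from transgenic T. cruzi replicating inside host cells; inhibitors lower the luminescence signal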
[7] = biological target: Glucose-6-phosphate 1-dehydrogenase (Homo sapiens, UniProt P11413); assay: human G6PD enzyme inhibitors, dose response, selectivity assay for P. falciparum G6PD inhibitor project, biochemical, fluorescence (AID 504792); assay type: functional
[8] = biological target: Peroxisome proliferator-activated receptor gamma/Nuclear receptor coactivator 3 (Homo sapiens, UniProt P37231); assay: (§1) TR-FRET dose response biochemical High Throughput Screening assay for agonists of the steroid receptor coactivator 3 (SRC-3) recruitment by the peroxisome proliferator-activated receptor gamma (PPAR gamma): non-selective agonists. [Related pubchem assays: 1301 (Confirmation screen.), 1048 (Primary screen.)]; assay type: functional
[9] = biological target: Peroxisome proliferator-activated receptor gamma/Nuclear receptor coactivator 1 (Homo sapiens, UniProt P37231); assay: as §1, with “1 (SRC-1)” for “3 (SRC-3)”, “assays (depositor defined):AID1300, AID1808, AID504735, AID631]” for “assays: 1301 (Confirmation screen.), 1048 (Primary screen.)]”; assay type: protein assay
[10] = biological target: Peroxisome proliferator-activated receptor gamma/Nuclear receptor coactivator 2 (Homo sapiens, UniProt P37231); assay: TR-FRET dose response biochemical High Throughput Screening assay for agonists of the steroid receptor coactivator 2 (SRC-2) recruitment by the peroxisome proliferator-activated receptor gamma (PPAR gamma): non-selective agonists. [Related pubchem assays: 1297, 1032 ]; assay type: functional
[11] = biological target: T4, Polyadenylate-binding protein 1 (Homo sapiens, UniProt P11940); assay: PABP1 MLLE–PAM2 binding inhibitor potency, dose response, biochemical, fluorescence polarization, FITC-PAM2 peptide (AID 602259); assay type: functional; details: read-out: IC50_Mean
[12] = biological target: T4, Polyadenylate-binding protein 1; assay: PABP1 MLLE–PAM2 interaction inhibitors, dose response, miRNA deadenylation inhibitor project, biochemical, fluorescence polarization, Cy5-PAM2 peptide, secondary (AID 602260); assay type: functional; details: read-out: IC50_Mean
[13] = biological target: T5, High affinity choline transporter 1 (Homo sapiens, UniProt Q9GZV3); assay: CHT inhibitors, dose response, cell-based, 5-point CRC, membrane potential dye (AID 504840); assay type: functional
T5 sequence (Q9GZV3 whole entry): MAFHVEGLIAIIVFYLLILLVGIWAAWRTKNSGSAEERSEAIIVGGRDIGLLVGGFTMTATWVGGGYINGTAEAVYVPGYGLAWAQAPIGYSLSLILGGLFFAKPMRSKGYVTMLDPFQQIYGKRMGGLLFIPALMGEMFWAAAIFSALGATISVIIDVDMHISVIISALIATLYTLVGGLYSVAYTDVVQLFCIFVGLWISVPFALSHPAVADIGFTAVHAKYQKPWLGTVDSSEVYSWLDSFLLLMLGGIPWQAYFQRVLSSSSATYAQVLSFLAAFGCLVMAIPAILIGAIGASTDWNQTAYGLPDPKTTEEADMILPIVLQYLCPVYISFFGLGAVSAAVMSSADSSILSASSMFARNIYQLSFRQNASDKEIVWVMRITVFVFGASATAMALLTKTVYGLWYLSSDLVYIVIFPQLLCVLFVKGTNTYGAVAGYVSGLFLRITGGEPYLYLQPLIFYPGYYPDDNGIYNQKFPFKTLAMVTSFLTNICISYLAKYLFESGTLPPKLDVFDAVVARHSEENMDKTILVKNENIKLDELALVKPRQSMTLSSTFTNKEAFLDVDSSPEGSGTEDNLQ

[14] = THP-1 cell cytotoxicity, dose response, cytotoxicity control for non-replicating M. tuberculosis project (AID 489025); assay type: functional
[15] = biological target: T6, Short transient receptor potential channel 4 (Mus musculus, UniProt Q9QUQ5); assay: mouse TRPC4 channel activators, dose response, cell-based, HEK293 TRPC4/mu-opioid, Fluo-4 calcium (AID 434937); assay type: functional
T6 sequence (Q9QUQ5 whole entry): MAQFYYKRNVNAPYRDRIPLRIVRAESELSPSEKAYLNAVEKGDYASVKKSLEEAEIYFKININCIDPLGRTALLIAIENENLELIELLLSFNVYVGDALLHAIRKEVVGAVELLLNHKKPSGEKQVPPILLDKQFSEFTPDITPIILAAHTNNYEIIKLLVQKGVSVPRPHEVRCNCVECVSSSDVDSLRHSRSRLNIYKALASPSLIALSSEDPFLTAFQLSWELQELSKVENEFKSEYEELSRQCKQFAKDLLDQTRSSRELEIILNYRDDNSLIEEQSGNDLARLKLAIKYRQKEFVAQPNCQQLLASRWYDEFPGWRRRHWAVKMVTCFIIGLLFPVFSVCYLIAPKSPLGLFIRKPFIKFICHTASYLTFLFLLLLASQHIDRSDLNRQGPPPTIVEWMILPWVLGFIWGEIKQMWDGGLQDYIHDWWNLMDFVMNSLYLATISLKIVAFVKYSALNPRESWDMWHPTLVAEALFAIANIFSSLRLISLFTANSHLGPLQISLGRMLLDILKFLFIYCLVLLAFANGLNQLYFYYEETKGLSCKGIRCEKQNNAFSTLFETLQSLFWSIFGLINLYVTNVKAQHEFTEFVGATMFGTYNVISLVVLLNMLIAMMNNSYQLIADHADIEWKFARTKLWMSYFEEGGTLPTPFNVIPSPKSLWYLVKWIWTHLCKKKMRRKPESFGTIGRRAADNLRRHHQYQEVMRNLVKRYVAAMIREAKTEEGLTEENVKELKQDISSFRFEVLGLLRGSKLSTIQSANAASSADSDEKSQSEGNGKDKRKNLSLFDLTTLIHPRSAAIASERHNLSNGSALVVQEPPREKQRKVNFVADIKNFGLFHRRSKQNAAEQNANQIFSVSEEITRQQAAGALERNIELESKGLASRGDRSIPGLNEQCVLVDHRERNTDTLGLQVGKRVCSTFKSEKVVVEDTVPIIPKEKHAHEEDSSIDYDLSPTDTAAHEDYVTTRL

cells = assay type: functional
Genome polyprotein = Genome polyprotein (dengue virus type 2, UniProt P29990); assay: Dengue-2 NS5 methyltransferase inhibitors, primary screen, biochemical, confirmation dose response (AID 588689); assay type: functional
Vero = Vero cell cytotoxicity, cytotoxicity control for flavivirus capping enzyme inhibitors (AID 588742); assay type: functional; details: Chlorocebus sabaeus

Chain of Peroxisome proliferator-activated receptor gamma/Nuclear receptor coactivator 1 (P37231 whole entry): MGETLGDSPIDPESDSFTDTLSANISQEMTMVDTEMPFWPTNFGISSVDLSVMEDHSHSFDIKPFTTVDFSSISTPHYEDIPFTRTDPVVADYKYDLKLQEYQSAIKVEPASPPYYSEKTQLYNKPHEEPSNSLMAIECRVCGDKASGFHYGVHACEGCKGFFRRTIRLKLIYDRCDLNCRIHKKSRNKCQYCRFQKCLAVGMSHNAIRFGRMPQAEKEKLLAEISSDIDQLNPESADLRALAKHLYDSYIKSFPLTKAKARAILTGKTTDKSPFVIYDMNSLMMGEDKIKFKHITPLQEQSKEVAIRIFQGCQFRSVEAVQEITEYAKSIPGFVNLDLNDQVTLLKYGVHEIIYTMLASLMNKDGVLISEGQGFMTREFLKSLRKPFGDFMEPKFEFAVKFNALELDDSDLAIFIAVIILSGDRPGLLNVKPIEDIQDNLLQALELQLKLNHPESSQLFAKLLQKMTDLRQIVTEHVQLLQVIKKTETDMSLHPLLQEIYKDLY
Chain of Peroxisome proliferator-activated receptor gamma/Nuclear receptor coactivator 1 (Q15788 whole entry, further chain): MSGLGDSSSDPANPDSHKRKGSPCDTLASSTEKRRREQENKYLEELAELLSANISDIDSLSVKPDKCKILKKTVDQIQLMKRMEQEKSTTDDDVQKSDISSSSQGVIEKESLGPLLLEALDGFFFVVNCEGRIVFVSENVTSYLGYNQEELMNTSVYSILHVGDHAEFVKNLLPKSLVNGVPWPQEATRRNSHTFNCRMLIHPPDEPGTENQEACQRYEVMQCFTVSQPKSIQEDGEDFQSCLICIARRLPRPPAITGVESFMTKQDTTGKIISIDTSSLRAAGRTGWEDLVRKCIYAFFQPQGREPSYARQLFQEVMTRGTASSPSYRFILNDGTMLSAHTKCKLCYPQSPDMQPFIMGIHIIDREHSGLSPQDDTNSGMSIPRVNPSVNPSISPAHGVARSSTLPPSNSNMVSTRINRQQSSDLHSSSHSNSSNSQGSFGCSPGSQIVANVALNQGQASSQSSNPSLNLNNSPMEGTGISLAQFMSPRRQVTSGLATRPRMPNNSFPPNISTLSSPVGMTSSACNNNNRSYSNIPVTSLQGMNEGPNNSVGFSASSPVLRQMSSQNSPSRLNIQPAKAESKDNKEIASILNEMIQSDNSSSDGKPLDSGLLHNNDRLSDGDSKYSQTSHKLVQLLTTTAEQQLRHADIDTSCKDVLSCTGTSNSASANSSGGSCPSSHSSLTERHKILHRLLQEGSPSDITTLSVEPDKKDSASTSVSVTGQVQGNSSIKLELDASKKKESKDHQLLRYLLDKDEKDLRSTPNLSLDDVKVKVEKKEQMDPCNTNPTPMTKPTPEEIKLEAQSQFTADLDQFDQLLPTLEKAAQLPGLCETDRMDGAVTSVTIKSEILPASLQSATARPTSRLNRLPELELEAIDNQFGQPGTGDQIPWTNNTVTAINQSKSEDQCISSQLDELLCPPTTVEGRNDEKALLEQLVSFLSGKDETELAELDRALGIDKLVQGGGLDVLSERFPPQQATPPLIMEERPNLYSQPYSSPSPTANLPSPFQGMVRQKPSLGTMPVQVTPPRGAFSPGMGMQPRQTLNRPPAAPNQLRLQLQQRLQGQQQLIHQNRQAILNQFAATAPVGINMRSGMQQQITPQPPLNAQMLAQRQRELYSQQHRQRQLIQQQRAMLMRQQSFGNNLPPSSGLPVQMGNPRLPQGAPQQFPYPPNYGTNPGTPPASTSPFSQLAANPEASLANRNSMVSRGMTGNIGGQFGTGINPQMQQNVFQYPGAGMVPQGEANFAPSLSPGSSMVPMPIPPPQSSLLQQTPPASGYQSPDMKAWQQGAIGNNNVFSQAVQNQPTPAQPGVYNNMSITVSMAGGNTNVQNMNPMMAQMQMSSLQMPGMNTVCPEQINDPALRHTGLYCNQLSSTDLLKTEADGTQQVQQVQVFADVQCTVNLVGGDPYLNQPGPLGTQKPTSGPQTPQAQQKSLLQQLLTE
Chain of Peroxisome proliferator-activated receptor gamma/Nuclear receptor coactivator 3 (P37231 whole entry): as the sequence (P37231 whole entry) above
Chain of Peroxisome proliferator-activated receptor gamma/Nuclear receptor coactivator 3 (Q9Y6Q9 whole entry, further chain): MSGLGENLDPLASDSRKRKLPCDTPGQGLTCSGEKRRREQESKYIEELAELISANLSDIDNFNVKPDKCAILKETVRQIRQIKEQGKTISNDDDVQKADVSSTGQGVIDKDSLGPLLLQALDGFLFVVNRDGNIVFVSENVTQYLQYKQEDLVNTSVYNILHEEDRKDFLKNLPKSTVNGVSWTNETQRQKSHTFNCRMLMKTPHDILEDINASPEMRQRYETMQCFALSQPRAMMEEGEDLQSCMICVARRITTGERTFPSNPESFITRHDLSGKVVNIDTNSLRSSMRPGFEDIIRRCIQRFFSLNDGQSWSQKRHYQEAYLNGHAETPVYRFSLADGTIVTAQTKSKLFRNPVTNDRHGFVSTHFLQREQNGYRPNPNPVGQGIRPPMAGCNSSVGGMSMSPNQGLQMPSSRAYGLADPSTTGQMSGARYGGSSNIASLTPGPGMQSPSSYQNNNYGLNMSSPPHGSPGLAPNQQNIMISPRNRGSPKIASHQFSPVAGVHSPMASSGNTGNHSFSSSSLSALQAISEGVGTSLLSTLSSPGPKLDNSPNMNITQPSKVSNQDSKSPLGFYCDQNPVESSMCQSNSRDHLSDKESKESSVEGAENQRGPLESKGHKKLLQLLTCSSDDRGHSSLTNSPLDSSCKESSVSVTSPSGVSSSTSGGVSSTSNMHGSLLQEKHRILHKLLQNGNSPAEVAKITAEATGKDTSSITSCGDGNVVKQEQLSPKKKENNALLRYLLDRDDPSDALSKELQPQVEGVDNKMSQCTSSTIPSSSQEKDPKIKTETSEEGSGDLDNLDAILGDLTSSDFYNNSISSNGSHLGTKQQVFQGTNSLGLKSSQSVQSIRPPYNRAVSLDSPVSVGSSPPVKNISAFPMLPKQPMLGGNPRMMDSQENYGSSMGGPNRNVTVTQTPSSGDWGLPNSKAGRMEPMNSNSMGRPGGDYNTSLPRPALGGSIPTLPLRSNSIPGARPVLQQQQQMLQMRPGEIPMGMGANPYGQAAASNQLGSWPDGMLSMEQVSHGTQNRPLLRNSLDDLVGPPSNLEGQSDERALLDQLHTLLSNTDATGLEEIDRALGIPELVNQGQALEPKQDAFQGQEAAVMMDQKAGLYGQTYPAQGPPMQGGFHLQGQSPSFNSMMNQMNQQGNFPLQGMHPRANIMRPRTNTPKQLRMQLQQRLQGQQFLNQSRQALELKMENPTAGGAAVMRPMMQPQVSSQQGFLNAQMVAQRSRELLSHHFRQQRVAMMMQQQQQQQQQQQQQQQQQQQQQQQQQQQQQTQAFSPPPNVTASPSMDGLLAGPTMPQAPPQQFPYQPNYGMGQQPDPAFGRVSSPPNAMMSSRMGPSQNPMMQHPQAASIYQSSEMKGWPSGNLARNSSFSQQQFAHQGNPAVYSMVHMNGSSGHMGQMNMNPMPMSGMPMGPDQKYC
Chain of Beta-galactosidase (Q8VNN2 whole entry): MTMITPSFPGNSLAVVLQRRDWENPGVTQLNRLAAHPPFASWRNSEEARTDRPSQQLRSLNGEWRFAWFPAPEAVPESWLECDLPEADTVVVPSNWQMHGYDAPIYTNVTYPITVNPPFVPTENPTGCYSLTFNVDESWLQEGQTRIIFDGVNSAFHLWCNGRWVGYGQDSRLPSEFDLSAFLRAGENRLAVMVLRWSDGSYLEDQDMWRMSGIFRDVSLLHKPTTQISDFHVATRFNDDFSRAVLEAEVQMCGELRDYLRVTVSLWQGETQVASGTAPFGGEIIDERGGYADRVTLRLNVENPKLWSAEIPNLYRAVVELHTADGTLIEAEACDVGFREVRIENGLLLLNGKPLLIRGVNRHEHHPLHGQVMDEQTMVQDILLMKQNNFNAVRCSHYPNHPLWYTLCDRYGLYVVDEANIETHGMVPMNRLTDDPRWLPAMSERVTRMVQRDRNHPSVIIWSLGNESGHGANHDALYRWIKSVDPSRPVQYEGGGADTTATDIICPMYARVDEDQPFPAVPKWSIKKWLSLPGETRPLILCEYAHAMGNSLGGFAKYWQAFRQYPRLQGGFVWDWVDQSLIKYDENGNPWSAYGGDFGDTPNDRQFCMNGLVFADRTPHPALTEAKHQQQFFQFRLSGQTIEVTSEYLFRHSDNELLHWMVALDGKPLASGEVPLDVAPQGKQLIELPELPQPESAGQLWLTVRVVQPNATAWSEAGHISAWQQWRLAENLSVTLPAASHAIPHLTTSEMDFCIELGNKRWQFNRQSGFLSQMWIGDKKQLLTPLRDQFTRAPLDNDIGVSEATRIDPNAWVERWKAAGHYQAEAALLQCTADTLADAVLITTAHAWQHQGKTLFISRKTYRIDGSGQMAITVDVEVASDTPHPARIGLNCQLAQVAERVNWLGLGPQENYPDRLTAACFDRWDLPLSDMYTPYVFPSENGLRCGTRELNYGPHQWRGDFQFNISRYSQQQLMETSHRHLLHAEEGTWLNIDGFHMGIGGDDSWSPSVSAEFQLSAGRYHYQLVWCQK

With `CC(=O)Nc1ccc(/C=C/c2nc3ccccc3o2)cc1` as the compound, how does the AC50 [1] read?
The AC50 was 1.2 µM (active).

Which IC50 [2] does the source give for `CC(NC(=O)COc1ccccc1)C(=O)OCC(=O)c1cc2ccccc2o1` (stereo not given) here?
Its IC50 is 13.8 µM (active).

What about the EC50 [3] of the same compound?
Its EC50 is > 300 µM (not active).

What about the EC50 (Beta-galactosidase) of the same compound?
Its EC50 is > 40 µM (inactive).

What about the EC50 [4] of the same compound?
The EC50 was > 300 µM (not active).

What does the source list for `CC1=C(n2nnc([N+](=O)[O-])n2)C(c2cccnc2)C(C#N)=C(N)O1` (stereo not given)?
EC50 [5]: > 60 µM (inconclusive); EC50 [6]: 0.209 µM (active); IC50 [7]: 65 µM (inactive)

Which IC50 [2] does the source give for `O=C(C[n+]1ccc(-c2cc(C(=O)Nc3cccc(C(F)(F)F)c3)c3ccccc3n2)cc1)c1cccc([N+](=O)[O-])c1` here?
Its IC50 is 26 µM (not active).

What about the EC50 (Beta-galactosidase) of the same compound?
Its EC50 is > 40 µM (inactive).

With `CCC(OC(=O)c1cc2sccc2n1C)C(=O)NCc1ccco1` (stereo not given) as the compound, how does the EC50 [8] read?
Its EC50 is > 79.4 µM (not active).

And the EC50 [9]?
The EC50 was > 79.4 µM (inactive).

What about the EC50 [10] of the same compound?
Its EC50 is > 26.5 µM (not active).

With `N#CCCN1CCN(C(=S)c2ccc(-c3ccc(Cl)cc3)o2)CC1` as the compound, how does the EC50 [8] read?
Its EC50 is > 79.4 µM (not active).

What about the EC50 [9] of the same compound?
The EC50 was > 79.4 µM (inactive).

What about the EC50 [10] of the same compound?
Its EC50 is > 79.4 µM (not active).

With `NC(=S)c1ccc(C(N)=S)o1` as the compound, how does the IC50 [11] read?
The IC50 was > 66 µM (inactive).

And the AC50 [1]?
The AC50 was 14.3 µM (active).

And the IC50 [12]?
The IC50 was > 66 µM (inactive).

For `C[C@H](NC(=O)OC(C)(C)C)c1nnc(SCC(=O)c2ccc(Cl)cc2)o1`, which IC50 [13] is on record?
The IC50 was 1.91 µM (active).

With `CCn1c(=O)cc(SCC(=O)N2CCN(c3ccccc3OC)CC2)c2ccccc21` as the compound, how does the EC50 [8] read?
The EC50 was > 79.4 µM (not active).

And the EC50 [9]?
The EC50 was > 79.4 µM (inactive).

What about the EC50 [10] of the same compound?
Its EC50 is > 79.4 µM (not active).

Which CC50 [14] does the source give for `Cc1cc(Cl)cc(C)c1OCCCCn1ccnc1` here?
The CC50 was 38.2 µM (active).

What about the EC50 [15] of the same compound?
Its EC50 is 3.76 µM (active).

What about the IC50 (cells) of the same compound?
Its IC50 is 15.5 µM (active).

Which IC50 [13] does the source give for `COc1ccc(-n2c(=S)[nH]c3cc(C(=O)NCCCN4CCOCC4)ccc3c2=O)cc1` here?
The IC50 was 10.3 µM (active).

For `O=c1cc(-c2ccccc2)oc2cc(O)c(O)c(O)c12` [BAICALEIN], which IC50 (Genome polyprotein) is on record?
The IC50 was 35.1 µM (active).

What about the CC50 (Vero) of the same compound?
The CC50 was > 40 µM (active).

And the AC50 [1]?
The AC50 was 14.5 µM (active).

— ChEMBL document CHEMBL1201862, “PubChem BioAssay data set” (2004)
